Five compounds from ChEMBL document CHEMBL1139560, “Synthesis of linked berberine dimers and their remarkably enhanced DNA-binding affinities” (Bioorg Med Chem Lett, 2005) can be followed below.

Format in all cases: nucleic-acid assay
The subject of assay [1] is Nucleic Acid. As to the kind of experiment: In vitro association constant for binding at d(TA AGAATTCTTA)2 done in 50 mM Tris-HCL in pH 6.35 at room temperature.
The subject of assay [2] is Nucleic Acid. As to the kind of experiment: In vitro association constant for binding at d(AAGAATTCTT)2 done in 50 mM Tris-HCL in pH 6.35 at room temperature.
In assay [3] the test system is Nucleic Acid. In words: In vitro relative affinity for binding to d(AAGAATTCTT)2.
In assay [4] the test system is Nucleic Acid. As to the kind of experiment: In vitro relative affinity for binding to d(TA AGAATTCTTA)2.

For the compound `COc1ccc2cc3[n+](cc2c1OC)CCc1cc2c(cc1-3)OCO2`, the figures for the Ka in assay [1] and in assay [2] were 29300 and 12400, respectively. The RA in assay [3] and in assay [4] was 1 each time.

As for `COc1ccc2cc3[n+](cc2c1OCCCCCCOc1c(OC)ccc2cc4[n+](cc12)CCc1cc2c(cc1-4)OCO2)CCc1cc2c(cc1-3)OCO2`, the Ka was 248000 in assay [1] and 34200 in assay [2]. Further, the results for the RA in assay [3] and in assay [4] were 2.8 and 8.5, respectively.

Consider `COc1ccc2cc3[n+](cc2c1OCCCCCOc1c(OC)ccc2cc4[n+](cc12)CCc1cc2c(cc1-4)OCO2)CCc1cc2c(cc1-3)OCO2`, for which the Ka amounted to 321000 in assay [1] and 57700 in assay [2]. Besides, the RA in assay [3] came out at 4.7; in assay [4], 11.

With `COc1ccc2cc3[n+](cc2c1OCCCOc1c(OC)ccc2cc4[n+](cc12)CCc1cc2c(cc1-4)OCO2)CCc1cc2c(cc1-3)OCO2`, the Ka was 2.76e+06 in assay [1] and 246000 in assay [2]. Besides, the RA in assay [3] was 19.8; in assay [4] it was 94.2.

As to `COc1ccc2cc3[n+](cc2c1OCCCCOc1c(OC)ccc2cc4[n+](cc12)CCc1cc2c(cc1-4)OCO2)CCc1cc2c(cc1-3)OCO2`, the Ka in assay [1] was determined as 349000; in assay [2], 87800. Also, the RA is 7.1 in assay [3] and 11.9 in assay [4].
